Measurements as given in PMC3726336, “Product inhibition of cellulases studied with ^14C-labeled cellulose substrates” (Biotechnology for Biofuels, 2013).

Columns and labels:
TrCel6A [1] = biological target: T1, TrCel6A (Trichoderma reesei, UniProt P07987); experiment: Cellobiose inhibition of synergistic hydrolysis of 14C-BC by TrCel6A and EG TrCel5A; type: biochemical
T1 construct: TrCel6A was purified from the culture filtrate of Tr QM 9414 as described previously; made in house; host or cells: Trichoderma reesei QM 9414 culture filtrate (native producer)
T1 sequence (P07987 25-471): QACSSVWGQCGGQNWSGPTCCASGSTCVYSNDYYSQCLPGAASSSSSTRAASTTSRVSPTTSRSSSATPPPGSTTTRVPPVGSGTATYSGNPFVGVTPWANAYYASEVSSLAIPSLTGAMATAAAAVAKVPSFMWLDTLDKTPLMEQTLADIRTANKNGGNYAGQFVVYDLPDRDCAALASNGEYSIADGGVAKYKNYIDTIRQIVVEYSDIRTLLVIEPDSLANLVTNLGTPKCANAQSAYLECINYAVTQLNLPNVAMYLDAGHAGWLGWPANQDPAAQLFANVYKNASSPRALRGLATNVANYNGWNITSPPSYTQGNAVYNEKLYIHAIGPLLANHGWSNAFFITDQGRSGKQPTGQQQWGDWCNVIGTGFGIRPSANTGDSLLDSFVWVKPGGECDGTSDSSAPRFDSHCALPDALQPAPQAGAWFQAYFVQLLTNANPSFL
Description: (§1) Here, we characterized the cellobiose and glucose inhibition of TrCel6A and its thermophilic counterpart, CtCel6A [9, 63]. First, the cellobiose inhibition of the synergistic hydrolysis of ^14C-BC by TrCel6A and TrCel5A was studied (Figure 7A). As TrCel6A was less sensitive to cellobiose inhibition than TrCel7A, the contribution of the cellobiose released during hydrolysis was not significant, and an average (DCB/DCB=0) over all time points was used in plotting (DCB/DCB=0) versus [cellobiose] (Figure 7D). No significant systematic variation of DCB/DCB=0 depending on hydrolysis time was observed. As in the case of GH7 CBHs, the IC50 value was found using Equations 5 and 6. Because the IC50 value for synergistic hydrolysis (Table 3) was of the same order as the apparent Ki value reported for TrCel5A [31], we further tested the inhibition of individual TrCel6A. BC is not a good substrate for TrCel6A, but its acid-treated derivative, BMCC, is readily degraded by the enzyme. Therefore, we prepared ^14C-BMCC by the heterogeneous acid hydrolysis of ^14C-BC. Without supplied cellobiose, both enzymes had similar activity with the ^14C-BMCC substrate, but CtCel6A was somewhat more resistant to cellobiose inhibition (Figure 7D, Table 3). The IC50 value for TrCel6A by itself was similar to that found for the synergistic hydrolysis. […]

TrCel12A = experiment: Cellobiose effect on hydrolysis of 14C-amorphous cellulose by TrCel12A; type: biochemical, Trichoderma reesei; settings: 35°C
Description: EGs are a diverse group of enzymes present in all efficient cellulase systems. Their best recognized function is their synergism with CBHs. Depending on the conditions, the degree of synergistic effect may be more than 10-fold. Therefore, the inhibition of the EG component may result in a drastic decrease in the rate of the synergistic hydrolysis of cellulose. The main soluble product of the EG-catalyzed cellulose hydrolysis is cellobiose, but some glucose and higher-order oligosaccharides are also produced. Here, we studied the cellobiose inhibition of the EGs TrCel7B, TrCel5A and TrCel12A with ^14C-amorphous cellulose substrate. The enzyme concentrations and hydrolysis times were adjusted so that the linear region of the time course was studied. The time courses for the hydrolysis of ^14C-amorphous cellulose by TrCel7B in the presence and absence of added cellobiose are shown in Figure 9A. For the results with TrCel5A and TrCel12A, see Additional file 1: Figure S5. […] This figure is reasonably well in line with that measured for TrCel7B on amorphous cellulose using isothermal titration calorimetry. […]
EGs were assessed on ^14C-amorphous cellulose. ^14C-amorphous cellulose (0.5 g l^-1) was incubated (with shaking at 700 rpm) with EG in 50 mM sodium acetate buffer, pH 5.0, containing BSA (0.1 g l^-1) in the presence and absence of added cellobiose. […]

[2] = biological target: Cel7A from Trichoderma harzianum; set-up: method as in PMID 23114223; settings: hydrolysis of chloro-nitrophenyl lactoside; read-out: Ki value for cellobiose inhibition; cited from earlier work
TrCel6A [3] = biological target: T1, TrCel6A; experiment: Inhibition of hydrolysis of 14C-BMCC by TrCel6A; type: biochemical
Description: as §1, with “^14C-BC.” for “^14C-BC. Without supplied cellobiose, both enzymes had similar activity with the ^14C-BMCC substrate, but CtCel6A was somewhat more resistant to cellobiose inhibition (Figure 7D, Table 3). The IC50 value for TrCel6A by itself was similar to that found for the synergistic hydrolysis.”
(§2) GH6 CBHs were assessed by observing the hydrolysis of ^14C-BMCC. ^14C-BMCC (0.25 g l^-1) was incubated (with shaking at 350 rpm) with CBH (0.25 μM) and N188BG (0.06 μM) in 50 mM sodium acetate buffer, pH 5.0, containing BSA (0.1 g l^-1). […]

CtCel6A = CtCel6A (Chaetomium thermophilum, UniProt G0SD43); experiment: Inhibition of hydrolysis of 14C-BMCC by CtCel6A; type: biochemical; settings: cellobiose; hydrolysis of 14C-BMCC by CtCel6A at 50°C
Chain of CtCel6A (G0SD43 entry or part of it): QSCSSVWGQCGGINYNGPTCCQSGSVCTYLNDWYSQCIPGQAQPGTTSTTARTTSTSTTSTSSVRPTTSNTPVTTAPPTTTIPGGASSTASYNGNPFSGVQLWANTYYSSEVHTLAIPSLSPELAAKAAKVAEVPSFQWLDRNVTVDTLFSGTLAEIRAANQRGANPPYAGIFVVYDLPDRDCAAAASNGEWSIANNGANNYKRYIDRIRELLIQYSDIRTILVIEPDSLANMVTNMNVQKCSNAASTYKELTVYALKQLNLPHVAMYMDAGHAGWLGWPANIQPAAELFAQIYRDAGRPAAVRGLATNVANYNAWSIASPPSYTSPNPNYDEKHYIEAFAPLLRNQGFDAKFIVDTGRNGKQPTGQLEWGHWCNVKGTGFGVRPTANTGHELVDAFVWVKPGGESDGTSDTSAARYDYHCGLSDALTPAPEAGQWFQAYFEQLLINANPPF
Description: as §1, with “^14C-BC.” for “^14C-BC. Without supplied cellobiose, both enzymes had similar activity with the ^14C-BMCC substrate, but CtCel6A was somewhat more resistant to cellobiose inhibition (Figure 7D, Table 3). The IC50 value for TrCel6A by itself was similar to that found for the synergistic hydrolysis.”
as §2

## O=C[C@H](O)[C@@H](O)[C@H](O[C@@H]1O[C@H](CO)[C@@H](O)[C@H](O)[C@H]1O)[C@H](O)CO [cellobiose, Cellobiose]
TrCel6A [1]
  IC50: 16 ± 0.5 mM
TrCel12A; TrCel12A (50 nM), not accountable by Equation 5
  IC50 (approximate, by visual inspection of Figure 9B): few hundred millimolar range
TrCel12A; TrCel12A, 75 mM cellobiose
  Effect of cellobiose on activity: apparent activation
[2]
  Ki: 7.2 mM
TrCel6A [3]
  IC50: 20 ± 1.4 mM
CtCel6A
  IC50: 28 ± 4.5 mM
